Measured values published in PMC8708875 (Pharmaceutics, 2021).

Test system: Erk 1/2 phosphorylation (pErk)
Experiment: Erk phosphorylation by Western blotting in differentiated C2C12 cells
Type: cell-based, mouse
Details: peptides 100 µM, insulin 100 nM, Western blot, three independent experiments
Experimental: C2C12 cells were used as a well-described model of skeletal muscle to evaluate the effect of peptides in gene expression, cell signaling, and glucose uptake. These cells were kindly provided by Prof. Patricia Brum, School of Physical Education and Prof. Anselmo Moriscot, Biomedical Science Institute, University of São Paulo, São Paulo, Brazil. C2C12 cells were cultured and maintained in high glucose Dulbecco’s modified Eagle’s medium (DMEM; Thermo Fisher Scientific, São Paulo, SP, Brazil) supplemented with 10% fetal bovine serum (FBS), 100 U/mL penicillin, and […] streptomycin in a humidified atmosphere of 5% CO2 at 37 °C. The cells were used in low pass (between passages 2 and 4) for all experiments to maintain the potential for differentiation of cultures. […]
Western blotting experiments were performed to evaluate the expression levels of specific proteins. […] Western blot bands were visualized with Super-Signal West Pico Chemiluminescent substrate (Thermo Scientific) using the ChemiDoc™ MP Imaging System (BioRad, Hercules, CA, USA), and quantified using ImageJ 1.49 software. All results are expressed as the means ± standard error of the mean (SEM). […] Data were statistically analyzed with GraphPad Prism software (GraphPad Software Inc, San Diego, CA, USA). […]

Row | Substance | phosphorylation of Erk (pErk over total Erk)
1 | Insulin | increased
2 | LASVSTVLTSKYR [Ric4, intracellular peptide derived from hemoglobin alpha subunit, last 13 C-terminal amino acids] | activated
